# Results reported in the supplement of paper PMC10331698.
# ± gives the standard deviation of the averaged measurements.
# Columns and labels:
# Experiment in all cases: level (log10 ratio to DMSO vehicle control); higher = higher biomarker level / cell amount than vehicle control
# [1] = compound: OCC(F)(F)C(F)(F)C(F)(F)C(F)(F)C(F)(F)C(F)(F)CO [1H,1H,8H,8H-Perfluorooctane-1,8-diol] (in DMSO)
# Experimental: (§1)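 BioMAP Diversity Plus panel of 12 human primary cell co-culture systems (3C, 4H, LPS, SAg, BT, BF4T, BE3C, CASM3C, HDF3CGF, KF3CT, MyoF, Mphg). Compounds were added 1 h before stimulation and left for 24 h (MyoF 48 h; BT 72 h for soluble read-outs or 6 d for IgG). Biomarkers were read by ELISA, cytotoxicity by SRB, PBMC viability and proliferation by Alamar Blue. Each well value was divided by the mean of 8 DMSO control wells on the same plate and log10 transformed; duplicate blinded samples were tested at 4 concentrations.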
# [2] = compound: O=C(O)C=C(C(F)(F)F)C(F)(F)F [3,3-Bis(trifluoromethyl)-2-propenoic acid] (in DMSO)
# Experimental: as §1
# [3] = compound: CCOC(=O)CC(=O)C(F)(F)C(F)(F)F [Ethyl pentafluoropropionyl acetate] (in DMSO)
# Experimental: as §1
# Perfluoroundecanoic acid = compound: O=C(O)C(F)(F)C(F)(F)C(F)(F)C(F)(F)C(F)(F)C(F)(F)C(F)(F)C(F)(F)C(F)(F)C(F)(F)F [Perfluoroundecanoic acid] (in DMSO); details: 6700 nM
# Experimental: as §1
# [4] = compound: O=C(O)CCC(F)(C(F)(F)F)C(F)(F)F [4,4-bis(Trifluoromethyl)-4-fluoropropanoic acid] (in DMSO)
# Experimental: as §1
# [5] = compound: OCC(F)(F)C(F)(F)C(F)(F)C(F)F [1H,1H,5H-Perfluoropentanol] (in DMSO)
# Experimental: as §1
# [6] = compound: O=S(=O)(O)CCC(F)(F)C(F)(F)C(F)(F)C(F)(F)C(F)(F)C(F)(F)C(F)(F)C(F)(F)F [8:2 Fluorotelomer sulfonic acid] (in DMSO)
# Experimental: as §1
Test System,level (log10) ([1]; 6700 nM),level (log10) ([1]; 20000 nM),level (log10) ([1]; 60000 nM),level (log10) ([2]; 6700 nM),level (log10) ([2]; 20000 nM),level (log10) ([2]; 60000 nM),level (log10) ([3]; 6700 nM),level (log10) ([3]; 20000 nM),level (log10) ([3]; 60000 nM),level (log10) (Perfluoroundecanoic acid),level (log10) ([4]; 6700 nM),level (log10) ([4]; 20000 nM),level (log10) ([4]; 60000 nM),level (log10) ([5]; 6700 nM),level (log10) ([5]; 20000 nM),level (log10) ([5]; 60000 nM),level (log10) ([6]; 6700 nM),level (log10) ([6]; 20000 nM),level (log10) ([6]; 60000 nM)
BE3C:Keratin 8/18,-0.0155 ± 0.022,-0.017 ± 0.0014,-0.0375 ± 0.0035,-0.001 ± 0.0014,-0.0025 ± 0.005,0.014 ± 0.031,0.0105 ± 0.022,0.0095 ± 0.033,0.001 ± 0.0085,-0.045 ± 0.023,0.011 ± 0.0028,-0.0005 ± 0.025,-0.0045 ± 0.011,-0.0225 ± 0.011,0.0135 ± 0.005,0.0035 ± 0.025,0.007 ± 0.0042,0.017 ± 0.0085,0.043 ± 0.014
CASM3C:Proliferation,-0.01 ± 0.0057,-0.024 ± 0.0099,-0.0305 ± 0.044,-0.0475 ± 0.0035,-0.0555 ± 0.015,-0.177 ± 0.06,-0.049 ± 0.04,-0.014 ± 0.0085,-0.0155 ± 0.00071,0.0285 ± 0.011,0.002 ± 0.013,-0.012 ± 0.0099,-0.003 ± 0.023,-0.018 ± 0.055,0.0175 ± 0.07,-0.0245 ± 0.03,0.005 ± 0.072,0.0065 ± 0.022,0.0245 ± 0.023
HDF3CGF:MMP-1,0.0005 ± 0.013,-0.0025 ± 0.013,0.008 ± 0.0071,-0.015 ± 0.0014,-0.013 ± 0.017,-0.001 ± 0.0099,0.01 ± 0.028,0.022 ± 0.0071,0.029 ± 0.034,-0.004 ± 0.0057,0.0015 ± 0.015,-0.0075 ± 0.029,-0.0145 ± 0.054,0.0075 ± 0.005,0.007 ± 0.0085,0.0105 ± 0.022,0.0205 ± 0.012,-0.017 ± 0.028,-0.0835 ± 0.036
lMphg:CD69,-0.0165 ± 0.036,-0.024 ± 0.025,0.001 ± 0.038,-0.069 ± 0.024,-0.0915 ± 0.0078,-0.0275 ± 0.067,-0.0405 ± 0.0064,0.0005 ± 0.064,0.0075 ± 0.12,-0.048 ± 0.083,0.015 ± 0.0071,0 ± 0.027,-0.021 ± 0.0042,-0.039 ± 0.031,0.0325 ± 0.019,0.034 ± 0.028,-0.0695 ± 0.023,-0.059 ± 0.0028,-0.173 ± 0.025
CASM3C:SRB,-0.001 ± 0.0085,-0.001 ± 0.0085,-0.007 ± 0.011,0.0145 ± 0.016,-0.0075 ± 0.0021,-0.027,0.0035 ± 0.0021,0.0015 ± 0.0035,0.002 ± 0.011,0.0025 ± 0.0035,-0.007 ± 0.0014,-0.0005 ± 0.0078,-0.0025 ± 0.0035,0.0025 ± 0.0035,0.0015 ± 0.0021,0.0045 ± 0.00071,0.0075 ± 0.005,0.0055 ± 0.005,0.0105 ± 0.0035
HDF3CGF:CXCL11/I-TAC,0.0145 ± 0.016,0.027 ± 0.017,0.017 ± 0.013,-0.038 ± 0.011,-0.0555 ± 0.035,-0.033 ± 0.054,-0.0175 ± 0.029,-0.026 ± 0.037,-0.0425 ± 0.021,-0.062 ± 0.024,-0.035 ± 0.079,-0.0465 ± 0.074,-0.0745 ± 0.12,-0.0425 ± 0.028,-0.023 ± 0.093,0.004 ± 0.051,-0.053 ± 0.027,-0.0285 ± 0.03,-0.0865 ± 0.067
MyoF:TIMP-1,-0.0125 ± 0.042,0.0285 ± 0.042,0.0735 ± 0.035,-0.0545 ± 0.025,-0.023 ± 0.023,-0.0085 ± 0.077,-0.005 ± 0.023,-0.012 ± 0.023,0.0125 ± 0.022,-0.117 ± 0.055,-0.0245 ± 0.091,-0.042 ± 0.064,-0.0345 ± 0.025,0.0015 ± 0.026,0.004 ± 0.054,0.039 ± 0.027,-0.0185 ± 0.0035,0.0095 ± 0.021,-0.008 ± 0.018
HDF3CGF:PAI-I,-0.0085 ± 0.0092,-0.026 ± 0.0057,-0.023 ± 0.017,-0.0265 ± 0.015,-0.069 ± 0.0099,-0.153 ± 0.025,-0.01 ± 0.025,0.004 ± 0.024,0.031 ± 0.062,-0.011 ± 0.0057,0.0145 ± 0.011,-0.0095 ± 0.00071,-0.014 ± 0.024,-0.111 ± 0.12,-0.047 ± 0.16,-0.0365 ± 0.096,0.018 ± 0.034,-0.002 ± 0.021,0.0015 ± 0.0078
HDF3CGF:TIMP-1,-0.002 ± 0.0071,-0.003 ± 0.0085,0.019 ± 0.025,-0.0935 ± 0.049,-0.125 ± 0.065,-0.0675 ± 0.013,-0.0085 ± 0.037,-0.007 ± 0.0071,-0.0305 ± 0.012,0.0385 ± 0.043,-0.022 ± 0.041,-0.021 ± 0.044,-0.036 ± 0.092,-0.012 ± 0.031,-0.0155 ± 0.025,0.006 ± 0.027,0.0375 ± 0.0064,0.0435 ± 0.037,-0.0365 ± 0.077
KF3CT:CD54/ICAM-1,-0.009 ± 0.0042,0.0015 ± 0.0092,-0.01 ± 0.018,-0.007 ± 0.0057,0.008 ± 0.0071,0.022 ± 0.016,-0.003 ± 0.024,0.006 ± 0.014,0.0075 ± 0.03,-0.019 ± 0.0028,0.0055 ± 0.0078,-0.0085 ± 0.0092,0.01 ± 0.0085,-0.002 ± 0.0071,-0.003 ± 0.023,0.004,-0.026 ± 0.02,-0.0495 ± 0.018,-0.0515 ± 0.005
